Like-named read-outs stand apart in the source and are kept apart here.
Columns and labels:
[1] = Ex vivo skin deposition, modified Franz diffusion cell; assay type: in vitro ADME
Description: Ex vivo skin deposition experiments were carried out utilising a modified Franz diffusion cell. Full thickness skin was collected and excised within 24 hours of birth. On the day of the experiment, the skin was first pre-equilibrated in PBS at pH 7.4 for 30 minutes until totally thawed and then carefully shaved using a razor. It was then cyanoacrylate-glued to the donor compartment of the Franz diffusion cells to ensure its adhesion to the set up during the microneedle insertion and throughout the experiment. Microneedle arrays were applied to the skin using firm thumb pressure for 30 seconds. A stainless-steel cylinder (diameter 11 mm, mass 11.5 g) was put on the top of each microneedle array to hold them in place throughout the experiment. The receiver compartment was filled with 12 mL of 1% w/v SLS in PBS (pH 7.4). The donor compartment was clamped on top of the receiver compartment and wrapped with Parafilm® M to prevent solvent evaporation. Samples of 200 μL of the receiver compartment were taken at predefined time points of 0.5, 1, 1.5, 2, 3, 4, 6, 10, and 24 hours and was replaced with the fresh release medium. At 24 hours, the Franz cells were disassembled, the skin surface dabbed clean to remove surface drug, and glecaprevir and pibrentasvir were extracted from skins. Cumulative amounts of glecaprevir and pibrentasvir delivered from each formulation to both skin and receiver compartments were also determined. To extract the drug from the skin, skin samples collected at 24 hours were cut into small pieces, where 0.5 ml of water was added to each sample. They were then homogenised for 15 minutes using a Tissue Lyser LT. Subsequently, 1 mL of methanol was added, and samples were homogenised again for another 15 minutes. Then they were transferred to the tubes followed by adding 3.5 mL of methanol. After a 30-min sonication, 100 μL of the samples were diluted to 1 mL by PBS buffer. The samples were vortexed and centrifuged, then analysed by HPLC.

[2] = In vivo plasma concentration after microneedle, intramuscular and intravenous administration (Example 22); set-up: species or system Female Sprague-Dawley rats; conditions: 5 mg/kg IV in DMSO/PEG 400/cyclodextrin; monitored 48 hour
Description: Animals were separated into three cohorts; each was comprised of 6 rats. Every 3 rats were housed in a different cage. Each rat of the first cohort (rats 1-6) received four microneedle arrays with a total dose of 16 mg (8 mg of glecaprevir and 8 mg of pibrentasvir). The second cohort (rats 7-12) received intramuscular injections of glecaprevir and pibrentasvir. For each rat, 37.5 mg of the glecaprevir30/pibrentasvir30/[…]10 formulation was dispersed in 300 μL of sterile water, then 150 μL of the solution was injected into each thigh of the rat. The dose given to each rat was approximately […]. The final cohort (rats 13-18) received 5 mg/kg of glecaprevir and pibrentasvir given as IV injections. The IV formulations were prepared by dissolving each drug in 5% v/v DMSO, 10% v/v PEG 400 in water diluted with 20% v/v hydroxy-B-cyclodextrin in water. To minimise the interference of hair in application of the microneedle arrays, the dorsal hair of the rats from the first cohort (rats 1-6) was removed prior to the experiment. The bulk hair was shaved using an electric hair clipper and the remaining hair residuals were removed using depilatory hair removal cream. Rats were then left for a 24 hour period to allow the skin to recover and to ensure complete restoration of skin barrier function before affixing the microneedle arrays. […]

[3] = Terminal half-life of conventional aqueous formulations injected intramuscularly; set-up: species or system adult male Wistar rats; conditions: male, Wistar, rat, in vivo, im
Excerpt: The foregoing experiments have shown that solid compositions comprising microparticles of glecaprevir and/or pibrentasvir may be formed through combination with certain first and second excipients. […] The solid compositions have also been reformulated into implantable rods, and microneedle arrays. Any of the solid compositions, aqueous dispersions, implantable rods, and microneedle arrays are expected to be therapeutically useful based on the known therapeutic uses of glecaprevir and pibrentasvir and the well-tolerated nature of the first and second excipients used. In addition, the form of the solid composition, aqueous dispersion, implantable rod, and microneedle array are expected to provide enhanced pharmacokinetic properties and therapeutic benefits when compared to conventional glecaprevir and pibrentasvir orally-dosed formulations. […] In particular, the formulations comprising microparticles of glecaprevir and/or pibrentasvir as described herein are expected to greatly improve the terminal half-life of the glecaprevir and/or pibrentasvir in vivo as compared to conventional aqueous formulations in which the glecaprevir and/or pibrentasvir are solubilised through addition of DMSO, when the formulations are delivered as intramuscular and/or subcutaneous injections.

| SMILES | deposited into the skin ([1]; from microneedle arrays, over 24 h) [µg] | delivered to the receiver compartment of the Franz diffusion cells ([1]; from microneedle arrays, over 24 h, receiver 1% w/v SLS in PBS pH 7.4) [µg] | total amount delivered to the skin and receiver compartment ([1]; from microneedle arrays, over 24 hours) [µg] | total amount delivered as share of drug initially present in the microneedle arrays ([1]; over 24 hours) [%] | plasma concentration after intravenous (IV) administration [2] | half-life ([3]; conventional aqueous formulation (solubilised through addition of DMSO), injected intramuscularly, read-out: terminal half-life (converted)) [h] | delivered to the receiver compartment of the Franz diffusion cells ([1]; 24 h, pH 7.4) [µg] | deposited into the skin ([1]; 24 h, pH 7.4) [µg] | total amount delivered as share of drug initially present in the microneedle arrays ([1]; 24 h, pH 7.4) [%] | total amount delivered to the skin and receiver compartment ([1]; 24 h, pH 7.4) [µg] | half-life [3] [h] |
| --- | --- | --- | --- | --- | --- | --- | --- | --- | --- | --- | --- |
| CC(C)(C)[C@@H]1NC(=O)O[C@@H]2CCC[C@H]2OC/C=C/C(F)(F)c2nc3ccccc3nc2O[C@@H]2C[C@@H](C(=O)N[C@]3(C(=O)NS(=O)(=O)C4(C)CC4)C[C@H]3C(F)F)N(C2)C1=O [glecaprevir, Glecaprevir] | 285.2 ± 51.3 | 203.9 ± 41.3 | 489.1 ± 68.6 | 25.1±3.5 | subsided quickly within the 48 hour period | 4 |  |  |  |  |  |
| COC(=O)N[C@H](C(=O)N1CCC[C@H]1c1nc2cc([C@H]3CC[C@H](c4cc5nc([C@@H]6CCCN6C(=O)[C@@H](NC(=O)OC)[C@@H](C)OC)[nH]c5cc4F)N3c3cc(F)c(N4CCC(c5ccc(F)cc5)CC4)c(F)c3)c(F)cc2[nH]1)[C@@H](C)OC [pibrentasvir, Pibrentasvir] |  |  |  |  |  |  | 115.2 ± 29 | 304 ± 45.7 | 23.4±3.2 | 419.2 ± 56.6 | 10 |

From patent US20240398697A1, “Injectable Formulations” (The University of Liverpool, priority 2021, published 2024)
